Source: patent US8586608B2, “Quinazoline derivatives and pharmaceutical compositions containing them” (Boehringer Ingelheim Pharma GmbH & Co. KG, priority 2000, dated 2013)

Legend:
[1] = target: T1, human EGF-receptor kinase (Homo sapiens, UniProt P00533); test: Inhibition of human EGF-receptor kinase (ELISA, bio-pEY substrate); assay type: biochemical; settings: cytoplasmic tyrosine kinase domain (Met664-Ala1186) as GST fusion protein; substrate pEY (4:1)/bio-pEY; 30 minutes at ambient temperature
T1 construct: GST; made in house; host or cells: Sf9 insect cells (baculovirus)
T1 sequence (P00533 688-1210): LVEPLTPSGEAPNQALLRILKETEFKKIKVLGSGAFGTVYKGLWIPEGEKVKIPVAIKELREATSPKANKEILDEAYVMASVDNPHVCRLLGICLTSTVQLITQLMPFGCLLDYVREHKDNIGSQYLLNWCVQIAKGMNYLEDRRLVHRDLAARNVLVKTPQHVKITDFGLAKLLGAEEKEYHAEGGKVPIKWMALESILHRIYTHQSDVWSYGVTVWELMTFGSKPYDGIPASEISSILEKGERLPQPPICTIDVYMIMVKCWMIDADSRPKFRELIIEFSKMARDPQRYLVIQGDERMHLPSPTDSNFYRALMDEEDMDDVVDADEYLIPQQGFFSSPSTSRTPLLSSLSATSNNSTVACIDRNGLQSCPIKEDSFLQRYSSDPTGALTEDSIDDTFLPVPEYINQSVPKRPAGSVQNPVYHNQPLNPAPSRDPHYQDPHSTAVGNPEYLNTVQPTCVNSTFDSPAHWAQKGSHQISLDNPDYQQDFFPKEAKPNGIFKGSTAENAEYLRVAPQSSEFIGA
Procedure: To do this, the protein was expressed in Sf9 insect cells as a GST fusion protein using the Baculovirus expression system.
The enzyme activity was measured in the presence or absence of the test compounds in serial dilutions. The polymer pEY (4:1) produced by SIGMA was used as the substrate. Biotinylated pEY (bio-pEY) was added as the tracer substrate. Every 100 μl of reaction solution contained 10 μl of the inhibitor in 50% DMSO, 20 μl of the substrate solution (200 mM HEPES pH 7.4, 50 mM magnesium acetate, 2.5 mg/ml poly(EY), 5 μg/ml bio-pEY) and 20 μl of enzyme preparation. The enzyme reaction was started by the addition of 50 μl of a 100 μM ATP solution in 10 mM magnesium chloride. The dilution of the enzyme preparation was adjusted so that the incorporation of phosphate into the bio-pEY was linear in terms of time and quantity of enzyme. The enzyme preparation was diluted in 20 mM HEPES pH 7.4, 1 mM EDTA, 130 mM common salt, 0.05% Triton X-100, 1 mM DTT and 10% glycerol.
The enzyme assays were carried out at ambient temperature over a period of 30 minutes and were ended by the addition of 50 μl of a stopping solution (250 mM EDTA in 20 mM HEPES pH 7.4). 100 μl were placed on a streptavidin-coated microtiter plate and incubated for 60 minutes at ambient temperature. Then the plate was washed with 200 μl of a washing solution (50 mM Tris, 0.05% Tween 20). After the addition of 100 μl of a HRPO-labelled anti-PY antibody (PY20H Anti-PTyr:HRP produced by Transduction Laboratories, 250 ng/ml), it was incubated for 60 minutes. Then the microtiter plate was washed three times with 200 μl of washing solution. The samples were then combined with 100 μl of a TMB-peroxidase solution (A:B=1:1, Kirkegaard Perry Laboratories). After 10 minutes, the reaction was stopped. The extinction was measured at OD450nm with an ELISA reader. All data points were measured three times.
The data were matched by means of an iterative calculation using an analytical program for sigmoidal curves (Graph Pad Prism Version 3.0) with variable Hill pitch.

IC50 [1] [nM] | melting point [°C] | SMILES
0.6 |  | CN(C)CC=CC(=O)Nc1cc2c(Nc3ccc(F)c(Cl)c3)ncnc2cc1OC1CCCC1 [1 (2), 4-[(3-chloro-4-fluorophenyl)amino]-6-{[4-(N,N-dimethylamino)-1-oxo-2-buten-1-yl]amino}-7-cyclopentyloxyquinazoline]
1 | 140 | CN(CC=CC(=O)Nc1cc2c(Nc3ccc(F)c(Cl)c3)ncnc2cc1OC1CCCC1)C1CC1 [1 (22), 4-[(3-chloro-4-fluorophenyl)amino]-6-{[4-(N-cyclopropyl-N-methylamino)-1-oxo-2-buten-1-yl]amino}-7-cyclopentyloxyquinazoline]
0.3 |  | CN(C)CC=CC(=O)Nc1cc2c(Nc3ccc(F)c(Cl)c3)ncnc2cc1OC[C@@H]1CCCO1 [1 (32), 4-[(3-chloro-4-fluorophenyl)amino]-6-{[4-(N,N-dimethylamino)-1-oxo-2-buten-1-yl]amino}-7-[(s)-(tetrahydrofuran-2-yl)methoxy]quinazoline]
0.5 | 154 to 157 | CCN(C)CC=CC(=O)Nc1cc2c(Nc3ccc(F)c(Cl)c3)ncnc2cc1O[C@H]1CCOC1 [1 (33), 4-[(3-chloro-4-fluorophenyl)amino]-6-{[4-(N-ethyl-N-methylamino)-1-oxo-2-buten-1-yl]amino}-7-[(s)-(tetrahydrofuran-3-yl)oxy]quinazoline]
0.4 |  | CC(C)N(C)CC=CC(=O)Nc1cc2c(Nc3ccc(F)c(Cl)c3)ncnc2cc1O[C@H]1CCOC1 [1 (34), 4-[(3-chloro-4-fluorophenyl)amino]-6-{[4-(N-isopropyl-N-methylamino)-1-oxo-2-buten-1-yl]amino}-7-[(s)-(tetrahydrofuran-3-yl)oxy]quinazoline]
 | 117 to 121 | CN(CC=CC(=O)Nc1cc2c(Nc3ccc(F)c(Cl)c3)ncnc2cc1OC1CCCC1)C[C@H]1CCCO1 [Example 1 (26), 4-[(3-chloro-4-fluorophenyl)amino]-6-[(4-{(R)—N-[(tetrahydrofuran-2-yl)methyl]-N-methylamino}-1-oxo-2-buten-1-yl)amino]-7-cyclopentyloxyquinazoline]
 | 110 to 112 | CN(C)CC=CC(=O)Nc1cc2c(Nc3ccc(F)c(Cl)c3)ncnc2cc1OC[C@H]1CCCO1 [Example 1 (31), 4-[(3-chloro-4-fluorophenyl)amino]-6-{[4-(N,N-dimethylamino)-1-oxo-2-buten-1-yl]amino}-7-[(R)-(tetrahydrofuran-2-yl)methoxy]quinazoline]
 | 184 to 185 | O=C(C=CCN1CCOCC1)Nc1cc2c(Nc3ccc(F)c(Cl)c3)ncnc2cc1O[C@H]1CCOC1 [Example 1 (35), 4-[(3-chloro-4-fluorophenyl)amino]-6-{[4-(morpholin-4-yl)-1-oxo-2-buten-1-yl]amino}-7-[(s)-(tetrahydrofuran-3-yl)oxy]quinazoline]

The next lines start with the molecule.

SMILES | IC50 [1] [nM] | melting point [°C]
COCCN(CC=CC(=O)Nc1cc2c(N[C@H](C)c3ccccc3)ncnc2cc1OCC1CC1)CCOC [1 (3), 4-[(R)-(1-phenylethyl)amino]-6-{[4-(N,N-bis(2-methoxyethyl)amino)-1-oxo-2-buten-1-yl]amino}-7-cyclopropylmethoxyquinazoline] | 4 | 
COCCN(C)CC=CC(=O)Nc1cc2c(N[C@H](C)c3ccccc3)ncnc2cc1OCC1CC1 [1 (5), 4-[(R)-(1-phenylethyl)amino]-6-({4-[N-(2-methoxyethyl)-N-methylamino]-1-oxo-2-buten-1-yl}amino)-7-cyclopropylmethoxyquinazoline] | 3 | 
CN(CC=CC(=O)Nc1cc2c(Nc3ccc(F)c(Cl)c3)ncnc2cc1OCC1CC1)C[C@H]1CCCO1 [Example 1 (19), 4-[(3-chloro-4-fluorophenyl)amino]-6-[(4-{(R)—N-[(tetrahydrofuran-2-yl)methyl]-N-methylamino}-1-oxo-2-buten-1-yl)amino]-7-cyclopropylmethoxyquinazoline] |  | 149 to 153
CN(CC=CC(=O)Nc1cc2c(Nc3ccc(F)c(Cl)c3)ncnc2cc1OCC1CC1)CC1CCOCC1 [Example 1 (24), 4-[(3-chloro-4-fluorophenyl)amino]-6-[(4-{N-[(tetrahydropyran-4-yl)methyl]-N-methylamino}-1-oxo-2-buten-1-yl)amino]-7-cyclopropylmethoxyquinazoline] |  | 141
O=C(C=CCN1CCOCC1)Nc1cc2c(Nc3ccc(F)c(Cl)c3)ncnc2cc1OCC1CCOCC1 [Example 1 (29), 4-[(3-chloro-4-fluorophenyl)amino]-6-{[4-(morpholin-4-yl)-1-oxo-2-buten-1-yl]amino}-7-[(tetrahydropyran-4-yl)methoxy]quinazoline] |  | 174
COCCN(CC=CC(=O)Nc1cc2c(Nc3ccc(F)c(Cl)c3)ncnc2cc1OCC1CCOCC1)CCOC [Example 1 (30), 4-[(3-chloro-4-fluorophenyl)amino]-6-({4-[N,N-bis(2-methoxyethyl)amino]-1-oxo-2-buten-1-yl}amino)-7-[(tetrahydropyran-4-yl)methoxy]quinazoline] |  | 100 to 102
COCCN(C)CC=CC(=O)Nc1cc2c(Nc3ccc(F)c(Cl)c3)ncnc2cc1OCC1CC1 [Example 1, [(3-chloro-4-fluorophenyl)amino]-6-({4-[N-(2-methoxyethyl)-N-methylamino]-1-oxo-2-buten-1-yl}amino)-7-cyclopropylmethoxyquinazoline] | 0.7 | 
